From the supplement of paper PMC10307832

How the values were obtained:
Test in all cases: relative viability (nuclei count vs DMSO), 5 days (fraction); higher = more cells survive
ABC-1 = system: ABC-1
In short: (§1)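 Nuclei were stained with Hoechst during a one-step fixation (final 0.05% Triton X-100, 1% formaldehyde, 1 ug/ml Hoechst) carried out 5 days after dosing, then counted on 4× images. The cells, lung cancer lines in 1536-well plates, had been dosed by pin tool the day after seeding with one drug alone or a fixed anchor-drug dose plus five library-drug doses (not always all listed) in √10 steps. Relative viability is the nuclei count in treated wells divided by that in vehicle wells, and each value is the median of duplicate plates.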

COR-L23 = system: COR-L23
In short: as §1

ChaGo-K-1 = system: ChaGo-K-1
In short: as §1

EMC-BAC-2 = system: EMC-BAC-2
In short: as §1

HARA = system: HARA
In short: as §1

HCC-15 = system: HCC-15
In short: as §1

HCC-366 = system: HCC-366
In short: as §1

HCC-78 = system: HCC-78
In short: as §1

HOP-62 = system: HOP-62
In short: as §1

LC-2-ad = system: LC-2-ad
In short: as §1

NCI-H1395 = system: NCI-H1395
In short: as §1

NCI-H1793 = system: NCI-H1793
In short: as §1

NCI-H1944 = system: NCI-H1944
In short: as §1

NCI-H1993 = system: NCI-H1993
In short: as §1

NCI-H2023 = system: NCI-H2023
In short: as §1

NCI-H2126 = system: NCI-H2126
In short: as §1

NCI-H2228 = system: NCI-H2228
In short: as §1

NCI-H23 = system: NCI-H23
In short: as §1

NCI-H2405 = system: NCI-H2405
In short: as §1

NCI-H358 = system: NCI-H358
In short: as §1

NCI-H838 = system: NCI-H838
In short: as §1

SK-LU-1 = system: SK-LU-1
In short: as §1

Structure (SMILES): COc1nc(C)cnc1NS(=O)(=O)c1cccnc1-c1ccc(-c2nnco2)cc1 [Zibotentan] + CC(=O)c1c(C)c2cnc(Nc3ccc(N4CCNCC4)cn3)nc2n(C2CCCC2)c1=O [Palbociclib] (partner 0.5 µM)
- relative viability (ABC-1; first compound 0.08 µM): 0.603
- relative viability (ABC-1; first compound 0.253 µM): 0.475
- relative viability (ABC-1; first compound 0.8 µM): 0.664
- relative viability (ABC-1; first compound 2.53 µM): 0.676
- relative viability (COR-L23; first compound 0.08 µM): 0.338
- relative viability (COR-L23; first compound 0.253 µM): 0.225
- relative viability (COR-L23; first compound 0.8 µM): 0.366
- relative viability (COR-L23; first compound 2.53 µM): 0.322
- relative viability (ChaGo-K-1; first compound 0.08 µM): 0.965
- relative viability (ChaGo-K-1; first compound 0.253 µM): 0.945
- relative viability (ChaGo-K-1; first compound 0.8 µM): 0.947
- relative viability (ChaGo-K-1; first compound 2.53 µM): 0.972
- relative viability (EMC-BAC-2; first compound 0.08 µM): 0.532
- relative viability (EMC-BAC-2; first compound 0.8 µM): 0.546
- relative viability (EMC-BAC-2; first compound 2.53 µM): 0.503
- relative viability (HARA; first compound 0.08 µM): 0.297
- relative viability (HARA; first compound 0.253 µM): 0.226
- relative viability (HARA; first compound 0.8 µM): 0.27
- relative viability (HARA; first compound 2.53 µM): 0.258
- relative viability (HCC-15; first compound 0.08 µM): 0.796
- relative viability (HCC-15; first compound 0.253 µM): 0.641
- relative viability (HCC-15; first compound 0.8 µM): 0.796
- relative viability (HCC-15; first compound 2.53 µM): 0.713
- relative viability (HCC-366; first compound 0.08 µM): 0.387
- relative viability (HCC-366; first compound 0.253 µM): 0.285
- relative viability (HCC-366; first compound 0.8 µM): 0.383
- relative viability (HCC-366; first compound 2.53 µM): 0.4
- relative viability (HCC-78; first compound 0.08 µM): 0.464
- relative viability (HCC-78; first compound 0.253 µM): 0.488
- relative viability (HCC-78; first compound 0.8 µM): 0.512
- relative viability (HCC-78; first compound 2.53 µM): 0.512
- relative viability (HOP-62; first compound 0.08 µM): 0.47
- relative viability (HOP-62; first compound 0.253 µM): 0.431
- relative viability (HOP-62; first compound 0.8 µM): 0.518
- relative viability (HOP-62; first compound 2.53 µM): 0.451
- relative viability (LC-2-ad; first compound 0.08 µM): 0.489
- relative viability (LC-2-ad; first compound 0.253 µM): 0.459
- relative viability (LC-2-ad; first compound 0.8 µM): 0.44
- relative viability (LC-2-ad; first compound 2.53 µM): 0.508
- relative viability (NCI-H1395; first compound 0.08 µM): 0.653
- relative viability (NCI-H1395; first compound 0.253 µM): 0.618
- relative viability (NCI-H1395; first compound 0.8 µM): 0.614
- relative viability (NCI-H1395; first compound 2.53 µM): 0.654
- relative viability (NCI-H1793; first compound 0.08 µM): 0.362
- relative viability (NCI-H1793; first compound 0.253 µM): 0.378
- relative viability (NCI-H1793; first compound 0.8 µM): 0.287
- relative viability (NCI-H1793; first compound 2.53 µM): 0.296
- relative viability (NCI-H1944; first compound 0.08 µM): 0.366
- relative viability (NCI-H1944; first compound 0.253 µM): 0.301
- relative viability (NCI-H1944; first compound 0.8 µM): 0.333
- relative viability (NCI-H1944; first compound 2.53 µM): 0.39
- relative viability (NCI-H1993; first compound 0.08 µM): 0.661
- relative viability (NCI-H1993; first compound 0.253 µM): 0.712
- relative viability (NCI-H1993; first compound 0.8 µM): 0.537
- relative viability (NCI-H1993; first compound 2.53 µM): 0.662
- relative viability (NCI-H2023; first compound 0.08 µM): 0.409
- relative viability (NCI-H2023; first compound 0.8 µM): 0.355
- relative viability (NCI-H2023; first compound 2.53 µM): 0.356
- relative viability (NCI-H2126; first compound 0.08 µM): 0.316
- relative viability (NCI-H2126; first compound 0.253 µM): 0.338
- relative viability (NCI-H2126; first compound 0.8 µM): 0.34
- relative viability (NCI-H2126; first compound 2.53 µM): 0.362
- relative viability (NCI-H2228; first compound 0.08 µM): 0.762
- relative viability (NCI-H2228; first compound 0.253 µM): 0.654
- relative viability (NCI-H2228; first compound 0.8 µM): 0.821
- relative viability (NCI-H2228; first compound 2.53 µM): 0.897
- relative viability (NCI-H23; first compound 0.08 µM): 0.586
- relative viability (NCI-H23; first compound 0.253 µM): 0.496
- relative viability (NCI-H23; first compound 0.8 µM): 0.53
- relative viability (NCI-H23; first compound 2.53 µM): 0.527
- relative viability (NCI-H2405; first compound 0.08 µM): 0.544
- relative viability (NCI-H2405; first compound 0.253 µM): 0.546
- relative viability (NCI-H2405; first compound 0.8 µM): 0.544
- relative viability (NCI-H2405; first compound 2.53 µM): 0.55
- relative viability (NCI-H358; first compound 0.08 µM): 0.152
- relative viability (NCI-H358; first compound 0.253 µM): 0.117
- relative viability (NCI-H358; first compound 2.53 µM): 0.125
- relative viability (NCI-H838; first compound 0.08 µM): 0.227
- relative viability (NCI-H838; first compound 0.253 µM): 0.207
- relative viability (NCI-H838; first compound 0.8 µM): 0.191
- relative viability (NCI-H838; first compound 2.53 µM): 0.233
- relative viability (SK-LU-1; first compound 0.08 µM): 0.416
- relative viability (SK-LU-1; first compound 0.253 µM): 0.389
- relative viability (SK-LU-1; first compound 0.8 µM): 0.367
- relative viability (SK-LU-1; first compound 2.53 µM): 0.367
